Measurements: ChEMBL document CHEMBL1201862, “PubChem BioAssay data set” (2004)
Activity calls are given as the source filed them.

Tests used:
Prothrombin = Prothrombin (Homo sapiens, UniProt P00734); test: Thrombin 1536 HTS Dose Response Confirmation. [Related pubchem assays: 1046 (Thrombin 1536 HTS; hits were confirmed in this assay)]; type: functional
[1] = M. tuberculosis H37Rv growth inhibitors, H37Rv strain (AID 1626); type: functional
[2] = biological target: Peroxisome proliferator-activated receptor gamma/Nuclear receptor corepressor 2 (Homo sapiens, UniProt P37231+Q9Y618); type: functional
[3] = biological target: Photoreceptor-specific nuclear receptor (Homo sapiens, UniProt Q9Y5X4); type: functional;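 note: potency for compounds that break the NR2E3 corepressor complex and count as activators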
14-3-3 protein gamma = biological target: T1, 14-3-3 protein gamma (Homo sapiens, UniProt P61981); test: modulators of 14-3-3 gamma client binding – dose response (AID 711); type: functional
T1 sequence (P61981 whole entry): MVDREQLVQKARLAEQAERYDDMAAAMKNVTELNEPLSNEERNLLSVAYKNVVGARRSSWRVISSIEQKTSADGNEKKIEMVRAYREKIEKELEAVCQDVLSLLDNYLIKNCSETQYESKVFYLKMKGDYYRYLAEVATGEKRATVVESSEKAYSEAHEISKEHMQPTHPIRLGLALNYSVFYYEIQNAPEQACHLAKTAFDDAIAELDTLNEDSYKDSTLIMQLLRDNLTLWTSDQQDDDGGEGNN

Bcl-2-like protein 10 = biological target: T2, Bcl-2-like protein 10 (Homo sapiens, UniProt Q9HD36); test: Bcl-B/TR3 peptide binding disruption – biochemical, fluorescence polarization, FITC-TR3 peptide, selectivity assay for Bfl-1 inhibitor project, primary screen (AID 748);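 note: fluorescence polarization from a fluorescein-labelled TR3 peptide binding purified Bcl-B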
T2 sequence (Q9HD36 whole entry): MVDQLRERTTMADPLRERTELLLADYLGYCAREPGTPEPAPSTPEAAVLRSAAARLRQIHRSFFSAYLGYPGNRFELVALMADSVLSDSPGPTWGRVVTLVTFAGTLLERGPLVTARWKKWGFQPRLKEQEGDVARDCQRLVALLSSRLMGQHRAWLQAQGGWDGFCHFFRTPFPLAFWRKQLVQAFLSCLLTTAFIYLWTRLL

[4] = A cytotoxicity screen of small molecule inhibitors of the PhoP region in Salmonella typhi identified in the primary screen. [Related pubchem assays: 1850, 1864, 1985 ]; type: functional
[5] = biological target: Induced myeloid leukemia cell differentiation protein Mcl-1 (Homo sapiens, UniProt Q07820); type: functional
[6] = biological target: Peroxisome proliferator-activated receptor gamma/Nuclear receptor coactivator 1 (Homo sapiens, UniProt P37231); test: TR-FRET dose response biochemical High Throughput Screening assay for agonists of the steroid receptor coactivator 1 (SRC-1) recruitment by the peroxisome proliferator-activated receptor gamma (PPAR gamma): non-selective agonists. [Related pubchem assays (depositor defined):AID1300, AID1808, AID504735, AID631]; type: protein assay
[7] = biological target: Peroxisome proliferator-activated receptor gamma/Nuclear receptor coactivator 2 (Homo sapiens, UniProt P37231); test: (§1) TR-FRET dose response biochemical High Throughput Screening assay for agonists of the steroid receptor coactivator 2 (SRC-2) recruitment by the peroxisome proliferator-activated receptor gamma (PPAR gamma): non-selective agonists. [Related pubchem assays: 1297, 1032 ]; type: functional
[8] = biological target: Peroxisome proliferator-activated receptor gamma/Nuclear receptor coactivator 3 (Homo sapiens, UniProt P37231); test: as §1, with “3 (SRC-3)” for “2 (SRC-2)”, “1301 (Confirmation screen.), 1048 (Primary screen.)]” for “1297, 1032 ]”; type: functional
[9] = Luminescence Cell-Based Dose Response HTS to Identify Activators of Luciferase Translation or Activity in H4 […] Cells. [Related pubchem assays: 1829 (Project Summary), 1814 (Primary HTS)]; type: functional
H4 = test: Luminescence Cell-Based Dose Response HTS to Identify Activators of 5'UTR Stem-Loop Driven Prion Protein mRNA Translation in H4 Neuroglioblastoma Cells. [Related pubchem assays: 1829 (Project Summary), 1814 (Primary HTS)]; type: functional; conditions: Homo sapiens
[10] = Luminescence Cell-Based Dose Confirmation HTS to Identify Activators of 5'UTR Stem-Loop Driven Alpha-Synuclein mRNA Translation in H4 Neuroglioblastoma Cells. [Related pubchem assays: 1829 (Project Summary), 1814 (Primary HTS)]; type: functional
[11] = biological target: Polyadenylate-binding protein 1 (Homo sapiens, UniProt P11940); test: blockers of PABP interaction with poly(A) – biochemical, fluorescence polarization, […] (AID 2014)
[12] = biological target: Eukaryotic translation initiation factor 4H (Homo sapiens, UniProt Q15056); test: eIF4H binding inhibition – biochemical, uHTS, fluorescence polarization, translation initiation inhibitor project, primary screen (AID 2012)
Estrogen receptor = biological target: T3, Estrogen receptor (Homo sapiens, UniProt P03372);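 note: potency for inhibiting coactivator peptide recruitment to the receptor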
T3 sequence (P03372 whole entry): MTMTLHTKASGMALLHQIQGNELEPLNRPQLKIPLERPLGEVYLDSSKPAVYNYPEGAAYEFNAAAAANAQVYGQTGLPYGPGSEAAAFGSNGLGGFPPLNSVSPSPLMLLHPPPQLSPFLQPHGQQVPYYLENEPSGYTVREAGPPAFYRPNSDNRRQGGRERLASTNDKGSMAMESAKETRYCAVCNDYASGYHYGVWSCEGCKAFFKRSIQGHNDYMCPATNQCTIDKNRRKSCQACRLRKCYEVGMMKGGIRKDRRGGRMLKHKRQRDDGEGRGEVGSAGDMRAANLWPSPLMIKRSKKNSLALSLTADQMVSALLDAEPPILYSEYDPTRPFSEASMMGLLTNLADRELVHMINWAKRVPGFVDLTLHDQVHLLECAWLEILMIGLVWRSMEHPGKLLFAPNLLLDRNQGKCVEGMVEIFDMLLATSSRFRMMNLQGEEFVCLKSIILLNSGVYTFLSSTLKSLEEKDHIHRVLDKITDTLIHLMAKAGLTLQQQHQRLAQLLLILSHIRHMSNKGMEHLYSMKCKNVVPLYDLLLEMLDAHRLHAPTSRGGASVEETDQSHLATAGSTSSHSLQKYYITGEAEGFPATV

[13] = microbe, parasite or virus in culture; type: functional; conditions: Mycobacterium tuberculosis
cells = type: functional
[14] = Vero E6 cell cytotoxicity, dose response, cytotoxicity control for non-replicating M. tuberculosis project, secondary assay (AID 492998); type: functional, VeroE6; conditions: Vero C1008
[15] = THP-1 cell cytotoxicity, dose response, cytotoxicity control for non-replicating M. tuberculosis project (AID 489025); type: functional
[16] = biological target: Heat shock protein HSP 90-alpha (Homo sapiens, UniProt P07900); type: functional, organism-based
Beta-galactosidase = Beta-galactosidase (Escherichia coli, UniProt Q8VNN2); test: detection-enzyme interference by beta-gal modulators – biochemical, E. coli enzyme, set 3, artefact control for CCR6 antagonist project, dose response (AID 504712); type: functional
Phosphomannomutase 2 = biological target: T4, Phosphomannomutase 2 (Homo sapiens, UniProt O15305); test: Counter screen SAR assay for PMM2 inhibitors via a fluorescence intensity assay. [Related pubchem assays (depositor defined):AID1545, AID1574]
T4 sequence (O15305 whole entry): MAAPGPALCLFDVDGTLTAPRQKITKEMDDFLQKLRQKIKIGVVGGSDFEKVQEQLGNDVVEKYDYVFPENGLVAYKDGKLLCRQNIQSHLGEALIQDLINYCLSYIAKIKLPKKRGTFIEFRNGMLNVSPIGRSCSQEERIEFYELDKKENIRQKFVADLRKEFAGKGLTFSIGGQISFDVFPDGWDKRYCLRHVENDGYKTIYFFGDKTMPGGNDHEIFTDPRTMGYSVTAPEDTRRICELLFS

[17] = biological target: T5, Mannose-6-phosphate isomerase (Homo sapiens, UniProt P34949); test: MPI enzyme activity inhibition – biochemical, fluorescence intensity, coupled assay, primary screen (AID 1209)
T5 sequence (P34949 whole entry): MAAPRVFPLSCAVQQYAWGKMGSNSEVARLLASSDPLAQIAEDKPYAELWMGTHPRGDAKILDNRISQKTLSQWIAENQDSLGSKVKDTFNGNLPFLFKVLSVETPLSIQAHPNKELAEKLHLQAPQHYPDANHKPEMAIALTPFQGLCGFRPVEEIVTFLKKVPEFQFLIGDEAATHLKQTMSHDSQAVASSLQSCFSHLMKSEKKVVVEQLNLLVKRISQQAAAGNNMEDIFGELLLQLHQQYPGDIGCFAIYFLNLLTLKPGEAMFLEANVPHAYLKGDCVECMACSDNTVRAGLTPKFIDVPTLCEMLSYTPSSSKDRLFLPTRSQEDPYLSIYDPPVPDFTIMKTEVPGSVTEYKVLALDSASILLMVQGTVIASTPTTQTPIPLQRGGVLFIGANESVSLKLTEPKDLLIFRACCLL

Sequence of Peroxisome proliferator-activated receptor gamma/Nuclear receptor corepressor 2 (P37231 whole entry): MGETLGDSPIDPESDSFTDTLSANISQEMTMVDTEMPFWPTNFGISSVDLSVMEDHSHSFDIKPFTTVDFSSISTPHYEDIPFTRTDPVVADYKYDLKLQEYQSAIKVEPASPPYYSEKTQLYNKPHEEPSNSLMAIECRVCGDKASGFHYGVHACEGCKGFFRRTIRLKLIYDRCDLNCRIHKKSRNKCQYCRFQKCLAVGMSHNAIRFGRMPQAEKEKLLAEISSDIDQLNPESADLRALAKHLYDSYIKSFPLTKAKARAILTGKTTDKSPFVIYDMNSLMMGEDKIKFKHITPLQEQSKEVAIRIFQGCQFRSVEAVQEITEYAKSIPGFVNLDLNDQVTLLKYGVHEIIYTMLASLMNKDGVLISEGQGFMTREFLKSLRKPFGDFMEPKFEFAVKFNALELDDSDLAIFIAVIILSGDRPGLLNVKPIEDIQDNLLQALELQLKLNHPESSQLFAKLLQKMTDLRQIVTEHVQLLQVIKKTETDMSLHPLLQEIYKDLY
Sequence of Peroxisome proliferator-activated receptor gamma/Nuclear receptor corepressor 2 (Q9Y618 whole entry): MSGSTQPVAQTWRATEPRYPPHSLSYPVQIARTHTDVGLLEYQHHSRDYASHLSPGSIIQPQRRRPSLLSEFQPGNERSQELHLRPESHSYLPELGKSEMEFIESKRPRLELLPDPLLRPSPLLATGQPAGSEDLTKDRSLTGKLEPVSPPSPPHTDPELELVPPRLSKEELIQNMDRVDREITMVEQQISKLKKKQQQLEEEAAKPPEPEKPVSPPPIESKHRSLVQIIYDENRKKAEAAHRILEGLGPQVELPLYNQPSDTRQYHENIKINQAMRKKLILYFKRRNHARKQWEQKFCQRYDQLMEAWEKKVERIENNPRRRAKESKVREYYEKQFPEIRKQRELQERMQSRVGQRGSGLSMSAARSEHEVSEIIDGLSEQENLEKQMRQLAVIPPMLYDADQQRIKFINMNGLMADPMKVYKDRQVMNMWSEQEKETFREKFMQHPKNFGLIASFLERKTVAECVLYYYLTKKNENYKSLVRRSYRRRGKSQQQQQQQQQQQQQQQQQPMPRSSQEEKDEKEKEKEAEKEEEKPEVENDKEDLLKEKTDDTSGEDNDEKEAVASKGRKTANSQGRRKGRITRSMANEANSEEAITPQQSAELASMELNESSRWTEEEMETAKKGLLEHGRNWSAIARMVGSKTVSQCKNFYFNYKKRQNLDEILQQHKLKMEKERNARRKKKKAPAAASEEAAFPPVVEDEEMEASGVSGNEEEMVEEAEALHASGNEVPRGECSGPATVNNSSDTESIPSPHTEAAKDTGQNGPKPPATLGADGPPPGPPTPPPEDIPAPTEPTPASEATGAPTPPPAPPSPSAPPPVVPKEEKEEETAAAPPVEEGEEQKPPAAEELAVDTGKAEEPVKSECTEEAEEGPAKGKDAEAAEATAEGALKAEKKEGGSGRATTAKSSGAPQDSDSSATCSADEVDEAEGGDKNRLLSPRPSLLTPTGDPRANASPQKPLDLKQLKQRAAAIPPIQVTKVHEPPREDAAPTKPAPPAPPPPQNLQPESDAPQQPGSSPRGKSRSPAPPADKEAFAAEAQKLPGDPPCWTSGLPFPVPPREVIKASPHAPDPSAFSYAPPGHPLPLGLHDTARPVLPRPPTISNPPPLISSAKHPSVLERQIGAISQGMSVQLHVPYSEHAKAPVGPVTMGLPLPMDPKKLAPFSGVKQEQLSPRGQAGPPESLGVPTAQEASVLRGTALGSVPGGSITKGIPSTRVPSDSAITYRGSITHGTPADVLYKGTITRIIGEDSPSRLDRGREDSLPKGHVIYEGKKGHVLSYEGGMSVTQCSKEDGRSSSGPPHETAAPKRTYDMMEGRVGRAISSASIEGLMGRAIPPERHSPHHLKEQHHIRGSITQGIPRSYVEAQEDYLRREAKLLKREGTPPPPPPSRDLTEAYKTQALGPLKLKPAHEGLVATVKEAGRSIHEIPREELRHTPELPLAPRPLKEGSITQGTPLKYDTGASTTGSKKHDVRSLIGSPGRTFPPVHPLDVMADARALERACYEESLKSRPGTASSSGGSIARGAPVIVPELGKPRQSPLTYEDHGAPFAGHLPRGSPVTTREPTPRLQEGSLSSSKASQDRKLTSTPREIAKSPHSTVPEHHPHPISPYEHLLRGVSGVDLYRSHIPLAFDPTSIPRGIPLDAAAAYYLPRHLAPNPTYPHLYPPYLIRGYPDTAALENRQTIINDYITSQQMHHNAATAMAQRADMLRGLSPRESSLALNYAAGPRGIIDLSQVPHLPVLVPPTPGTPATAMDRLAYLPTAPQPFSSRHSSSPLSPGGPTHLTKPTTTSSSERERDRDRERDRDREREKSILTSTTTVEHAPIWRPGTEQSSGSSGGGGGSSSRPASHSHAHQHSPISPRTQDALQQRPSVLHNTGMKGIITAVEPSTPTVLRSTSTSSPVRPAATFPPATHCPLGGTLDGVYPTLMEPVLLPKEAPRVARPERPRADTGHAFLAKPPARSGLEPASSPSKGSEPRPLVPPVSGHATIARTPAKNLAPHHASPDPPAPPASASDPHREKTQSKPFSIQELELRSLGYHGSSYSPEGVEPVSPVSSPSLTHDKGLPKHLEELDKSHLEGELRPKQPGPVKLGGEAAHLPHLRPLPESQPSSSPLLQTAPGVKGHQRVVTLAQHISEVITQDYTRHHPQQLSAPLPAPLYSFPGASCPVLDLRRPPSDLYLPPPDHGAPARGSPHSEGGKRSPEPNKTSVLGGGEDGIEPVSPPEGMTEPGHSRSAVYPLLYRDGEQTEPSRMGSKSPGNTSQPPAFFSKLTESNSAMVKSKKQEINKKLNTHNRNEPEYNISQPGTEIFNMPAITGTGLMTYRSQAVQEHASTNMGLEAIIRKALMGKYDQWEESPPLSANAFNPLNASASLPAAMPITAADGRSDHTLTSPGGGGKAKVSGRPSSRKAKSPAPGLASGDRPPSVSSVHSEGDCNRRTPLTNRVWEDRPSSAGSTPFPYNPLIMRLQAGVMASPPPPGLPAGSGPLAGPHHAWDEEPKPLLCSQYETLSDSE
Sequence of Photoreceptor-specific nuclear receptor (Q9Y5X4 whole entry): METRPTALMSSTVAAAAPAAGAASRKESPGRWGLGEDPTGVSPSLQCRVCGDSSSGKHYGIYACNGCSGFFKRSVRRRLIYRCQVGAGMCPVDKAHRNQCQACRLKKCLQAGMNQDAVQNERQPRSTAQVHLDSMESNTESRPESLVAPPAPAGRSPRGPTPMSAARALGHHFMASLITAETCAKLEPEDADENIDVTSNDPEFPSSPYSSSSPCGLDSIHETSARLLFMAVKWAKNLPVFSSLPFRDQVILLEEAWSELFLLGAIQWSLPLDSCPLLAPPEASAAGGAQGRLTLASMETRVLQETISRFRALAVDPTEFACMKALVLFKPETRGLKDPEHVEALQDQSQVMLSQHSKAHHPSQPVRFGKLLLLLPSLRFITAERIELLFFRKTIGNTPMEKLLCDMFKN
Sequence of Polyadenylate-binding protein 1 (P11940 whole entry): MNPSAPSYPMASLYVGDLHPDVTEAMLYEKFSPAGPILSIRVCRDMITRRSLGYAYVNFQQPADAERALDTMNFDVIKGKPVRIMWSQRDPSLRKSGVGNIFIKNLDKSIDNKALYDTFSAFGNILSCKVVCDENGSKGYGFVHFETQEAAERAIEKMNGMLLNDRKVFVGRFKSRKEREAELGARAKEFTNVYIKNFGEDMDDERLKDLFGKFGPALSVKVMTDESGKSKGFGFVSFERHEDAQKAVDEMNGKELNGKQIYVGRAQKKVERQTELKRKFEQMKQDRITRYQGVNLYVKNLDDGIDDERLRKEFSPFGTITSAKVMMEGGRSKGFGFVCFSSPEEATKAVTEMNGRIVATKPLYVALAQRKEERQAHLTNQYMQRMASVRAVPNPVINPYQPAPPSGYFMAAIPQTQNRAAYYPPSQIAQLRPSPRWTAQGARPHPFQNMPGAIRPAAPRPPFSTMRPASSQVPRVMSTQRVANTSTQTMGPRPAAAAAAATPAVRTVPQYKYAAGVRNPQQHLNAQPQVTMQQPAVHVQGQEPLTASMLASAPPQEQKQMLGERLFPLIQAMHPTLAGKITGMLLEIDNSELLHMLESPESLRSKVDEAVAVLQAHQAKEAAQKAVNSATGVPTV
Sequence of Induced myeloid leukemia cell differentiation protein Mcl-1 (Q07820 whole entry): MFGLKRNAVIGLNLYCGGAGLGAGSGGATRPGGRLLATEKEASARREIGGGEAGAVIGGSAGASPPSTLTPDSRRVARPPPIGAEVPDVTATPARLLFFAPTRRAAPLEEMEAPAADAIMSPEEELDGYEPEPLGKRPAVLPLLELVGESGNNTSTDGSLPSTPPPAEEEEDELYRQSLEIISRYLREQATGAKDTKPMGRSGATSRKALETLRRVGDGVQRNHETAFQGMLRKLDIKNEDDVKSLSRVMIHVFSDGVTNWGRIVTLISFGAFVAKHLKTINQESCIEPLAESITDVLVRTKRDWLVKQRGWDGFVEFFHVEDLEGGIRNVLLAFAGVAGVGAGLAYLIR

CC(=O)n1nc(-c2ccc(C)cc2)nc1NCc1ccco1
IC50 (Prothrombin): 1.82 µM (active)

COc1ccc(NC(=O)CCc2nc(-c3ccccc3F)no2)cc1
IC50 [1]: > 100 µM (active)

COc1ccc(C(=O)NNC(=O)C(Cc2ccc(O)cc2)NC(=O)c2ccccc2NC(=O)c2ccc(OC)cc2)cc1 (stereo not drawn)
IC50 [2]: > 39.8 µM (not active) | IC50 [3]: > 39.8 µM (not active)

COC(=O)Cn1cc(C(=O)c2cccs2)c2ccccc21
IC50 (Prothrombin): > 50 µM (inconclusive)

Cc1ccc(C(=O)NCC(C)(C)O)cc1
IC50 (14-3-3 protein gamma): > 50 µM (not active)

Cc1cc(C)c(NC(=O)CN(c2ccccc2)S(=O)(=O)N(C)C)c(C)c1
IC50 (Bcl-2-like protein 10): 69.2 µM (inactive)

Cc1cc(NS(=O)(=O)c2ccc(Nc3nc(-c4sc(NC(=O)c5ccccc5)nc4C)cs3)cc2)no1
EC50 [4]: > 50 µM (active) | IC50 [5]: 2.46 µM (active)

CCOc1cc(C2NC(=O)NC(O)(C(F)(F)F)C2C(=O)c2ccc(Cl)cc2)ccc1O (stereo not drawn)
IC50 (Prothrombin): > 50 µM (not active)

CN(C)CCCN1C(=O)C(O)=C(C(=O)c2cc3ccccc3o2)C1c1ccccc1 (stereo not drawn)
EC50 [6]: 6.07 µM (active) | IC50 [2]: 5.04 µM (active) | IC50 [3]: > 39.8 µM (not active) | EC50 [7]: 4.26 µM (active) | EC50 [8]: > 79.4 µM (not active)

Nc1ccccc1Nc1cc(-c2ccccc2)[nH]n1
EC50 [9]: 19.8 µM (active) | EC50 (H4): 12.1 µM (active) | EC50 [10]: 14.1 µM (active) | IC50 [1]: > 100 µM (active)

O=C(NCc1ccco1)C1c2ccccc2Oc2ccccc21
IC50 [11]: 71.3 µM (active) | IC50 [12]: 15.7 µM (active)

Cc1cccc2cc(C(c3nnnn3C(C)(C)C)N(Cc3ccco3)CC3CCCO3)c(=O)[nH]c12 (stereo not drawn)
IC50 (Bcl-2-like protein 10): > 100 µM (inactive) | IC50 (Estrogen receptor): 13.3 µM (active)

Cc1ccc(-n2c(=S)[nH]c3c(oc4ccccc43)c2=O)cc1C
IC50 [2]: 7.61 µM (active) | IC50 [3]: 4.11 µM (active)

Cc1cc(CC(C)C)n(-c2nc3ccccc3c(=O)n2OCC(N)=O)n1
CC50 [13]: > 40 µM (active) | IC50 (cells): 8.85 µM (active) | CC50 [14]: > 20 µM (active) | CC50 [15]: > 40 µM (active)

CCOc1ccc(-n2cc(C(=O)N3CCN(C)CC3)c3cc(OC)c(OC)cc3c2=O)cc1
IC50 (14-3-3 protein gamma): > 50 µM (not active)

COc1ccc(NC(=O)CSC2=NCCN2)cc1
IC50 [1]: > 100 µM (active)

COc1cccc2cc(-c3cc(=O)oc4ccc(O)cc34)oc12
IC50 [11]: > 100 µM (inactive) | IC50 [12]: 43.1 µM (active)

Cc1cc(C)cc(N2C(=O)C=CC2=O)c1
AC50 [16]: 0.499 µM (active) | IC50 (Beta-galactosidase): > 66.6 µM (inactive)

Cc1ccc(C)c(-n2[nH]c3ccccc3c2=O)c1
IC50 (Phosphomannomutase 2): > 100 µM (inactive)

C(=N/Nc1nccs1)/c1cccnc1
EC50 [4]: > 50 µM (active)

Cn1c(=O)[nH]c(=O)c2c1nc(Br)n2C/C=N/Nc1ccccc1
IC50 [17]: > 50 µM (not active)
